These results are taken from article PMC6968587, “Discovery of 3-alkyl-5-aryl-1-pyrimidyl-1H-pyrazole derivatives as a novel selective inhibitor scaffold of JNK3” (Journal of Enzyme Inhibition and Medicinal Chemistry, 2019).

What all share (format): biochemical
Assay [1] concerns the target T1, JNK3 (Homo sapiens, UniProt P53779). Description: JNK3 enzymatic inhibitory activity (IC50). The source says:
In an effort to reduce the molecular weight, the piperidine ring was diversified into pyrrolidine and azetidine with less carbon atoms.

A further assay addresses T2, GSK3β (Homo sapiens, UniProt P49841).
T2 construct: purchased Reaction Biology Corp. (Kinase HotSpot service)
Description: GSK3β enzymatic activity (IC50), Reaction Biology Kinase HotSpot.

In assay [2] the test system is 38 selected protein kinases. Description: Kinase panel screening, single dose 10 μM, in duplicate: other kinases of the 38-kinase panel. The procedure:
(§1) Next, we used kinase panel screening in duplicate for compound 7a over 38 different kinases at a single-dose concentration of 10 μM (Table 2). The compound was indeed a selective JNK3 inhibitor with an excellent selectivity profile.

Assay [3] deals with T1, JNK3. Description: Kinase panel screening, single dose 10 μM, in duplicate: JNK3. The note with it: read-out: inhibitory activity on JNK3. Here is the method: as §1
Setting [4] is: enzymatic activity, Table 1, read-out: JNK3 IC50.

Where two headings read alike, the source gives them in different places. A value given as a limit tells only on which side of the number the result lay.

T1 sequence (P53779 whole entry): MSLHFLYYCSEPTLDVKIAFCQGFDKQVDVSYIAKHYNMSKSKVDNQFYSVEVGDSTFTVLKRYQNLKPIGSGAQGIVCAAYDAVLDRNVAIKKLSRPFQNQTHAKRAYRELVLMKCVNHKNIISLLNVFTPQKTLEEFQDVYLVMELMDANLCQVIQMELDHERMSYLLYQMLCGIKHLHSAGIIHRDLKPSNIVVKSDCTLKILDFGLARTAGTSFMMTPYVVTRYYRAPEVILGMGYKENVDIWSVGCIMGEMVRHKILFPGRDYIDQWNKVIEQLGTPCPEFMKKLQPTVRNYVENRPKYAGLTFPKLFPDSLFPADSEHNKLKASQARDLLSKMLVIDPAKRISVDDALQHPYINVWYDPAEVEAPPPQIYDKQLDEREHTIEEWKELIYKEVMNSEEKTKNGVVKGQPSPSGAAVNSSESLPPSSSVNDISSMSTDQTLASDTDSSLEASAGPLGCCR
T2 sequence (P49841 whole entry): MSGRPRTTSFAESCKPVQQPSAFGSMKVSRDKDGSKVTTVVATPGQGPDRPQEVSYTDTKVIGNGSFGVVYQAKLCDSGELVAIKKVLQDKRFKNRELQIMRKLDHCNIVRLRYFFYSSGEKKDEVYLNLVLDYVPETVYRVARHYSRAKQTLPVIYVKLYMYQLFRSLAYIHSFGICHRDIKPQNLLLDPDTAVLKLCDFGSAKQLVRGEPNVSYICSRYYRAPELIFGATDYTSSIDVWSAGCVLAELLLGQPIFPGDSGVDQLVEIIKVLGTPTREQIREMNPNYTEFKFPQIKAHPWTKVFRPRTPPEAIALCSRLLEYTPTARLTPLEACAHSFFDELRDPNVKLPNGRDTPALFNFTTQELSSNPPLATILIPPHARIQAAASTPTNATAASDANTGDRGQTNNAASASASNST

Regarding `N#CCc1cc(-c2ccc3c(c2)CCO3)n(-c2ccnc(N[C@@H]3CCN(C(=O)C4CC4)C3)n2)n1` [8d], the concentration for half-maximal inhibition (IC50) at JNK3 [1] (setting [4]) amounted to 4.42 µM. With `N#CCc1cc(-c2ccc3c(c2)OCO3)n(-c2ccnc(N[C@@H]3CCN(C(=O)C4CC4)C3)n2)n1` [8c], the IC50 at JNK3 [1] (setting [4]) was 2.18 µM. As to `N#CCc1cc(-c2ccc3ccccc3c2)n(-c2ccnc(N[C@H]3CCN(C(=O)C4CC4)C3)n2)n1` [9b], on JNK3 [1] (setting [4]), the IC50 amounted to 2.9 µM. Still for that read-out and setting: under `COC(=O)Cc1cc(-c2ccc(Cl)c(Cl)c2)n(-c2ccnc(N[C@H]3CCCN(C(=O)C4CC4)C3)n2)n1` [12a] stands 0.903 µM; under `N#CCc1cc(-c2ccc3c(c2)OCO3)n(-c2ccnc(N[C@H]3CCN(C(=O)C4CC4)C3)n2)n1` [9c], 8.57 µM.

Consider `N#CCc1cc(-c2ccc(Cl)c(Cl)c2)n(-c2ccnc(NC3CN(C(=O)C4CC4)C3)n2)n1` [10a], for which, on JNK3 [1] (setting [4]), the IC50 is 2.84 µM. On the same count and under the same terms, under `N#CCc1cc(-c2ccc3c(c2)CCO3)n(-c2ccnc(N[C@H]3CCN(C(=O)C4CC4)C3)n2)n1` [9d] stands 3.25 µM. `N#CCc1cc(-c2ccc(Cl)c(Cl)c2)n(-c2ccnc(N[C@H]3CCCN(C(=O)C4CC4)C3)n2)n1` [7a]: the concentration for half-maximal inhibition (IC50) on JNK3 [1] (setting [4]) worked out at 0.635 µM; at GSK3β (Table 2, Kinase HotSpot service, read-out: Compound IC50* on GSK3β), 3.96 µM. Further, on GSK3β (ratio of IC50 GSK3β / JNK3), the “selectivity for JNK3 over GSK3β in terms of IC50” value is given as “six fold selective”. Further, the “inhibition activity for most other kinases except GSK3β” value in assay [2] was “less than 20%”. Also, the inhibition at 10 µM at JNK3 [3] worked out at 90%. On to `N#CCc1cc(-c2ccc3c(c2)CCO3)n(-c2ccnc(N[C@H]3CCCN(C(=O)C4CC4)C3)n2)n1` [7d], for which the IC50 at JNK3 [1] (setting [4]) worked out at 7.9 µM.

Take `N#CCc1cc(-c2ccc3ccccc3c2)n(-c2ccnc(NC3CN(C(=O)C4CC4)C3)n2)n1` [10b]: the IC50 at JNK3 [1] (setting [4]) was 2.07 µM. On JNK3 [1], `N#CCc1cc(-c2ccc(Cl)c(Cl)c2)n(-c2ccnc(N[C@@H]3CCN(C(=O)C4CC4)C3)n2)n1` [8a, (R)-2-(1-(2-((1-(cyclopropanecarbonyl)pyrrolidin-3-yl)amino)pyrimidin-4-yl)-5-(3,4-dichlorophenyl)-1H-pyrazol-3-yl)acetonitrile] had an IC50 of 0.227 µM. On the same count and under the same terms, the figure for `N#CCc1cc(-c2ccc(Cl)c(Cl)c2)n(-c2ccnc(N[C@H]3CCN(C(=O)C4CC4)C3)n2)n1` [9a] is 3.11 µM. With `N#CCc1cc(-c2ccc([N+](=O)[O-])cc2)n(-c2ccnc(N[C@H]3CCCN(C(=O)C4CC4)C3)n2)n1` [7f], the IC50 on JNK3 [1] (setting [4]) is greater than 10 µM. Still for that read-out and setting: the figure for `N#CCc1cc(-c2ccc3c(c2)OCO3)n(-c2ccnc(NC3CN(C(=O)C4CC4)C3)n2)n1` [10c] is 5.58 µM. Still for that read-out and setting: under `N#CCc1cc(-c2cccc([N+](=O)[O-])c2)n(-c2ccnc(N[C@@H]3CCN(C(=O)C4CC4)C3)n2)n1` [8e] stands greater than 10 µM; under `N#CCc1cc(-c2ccc3ccccc3c2)n(-c2ccnc(N[C@H]3CCCN(C(=O)C4CC4)C3)n2)n1` [7b], 0.824 µM; under `N#CCc1cc(-c2ccc3ccccc3c2)n(-c2ccnc(N[C@@H]3CCN(C(=O)C4CC4)C3)n2)n1` [8b], 0.361 µM. Take `NC(=O)Cc1cc(-c2ccc(Cl)c(Cl)c2)n(-c2ccnc(N[C@H]3CCCN(C(=O)C4CC4)C3)n2)n1` [11a]: the IC50 at JNK3 [1] (setting [4]) came out at 1.46 µM. As for `N#CCc1cc(-c2ccc([N+](=O)[O-])cc2)n(-c2ccnc(N[C@@H]3CCN(C(=O)C4CC4)C3)n2)n1` [8f], the 50% inhibitory concentration (IC50) at JNK3 [1] (setting [4]) was found to be 7.89 µM. As to `N#CCc1cc(-c2ccc3c(c2)OCO3)n(-c2ccnc(N[C@H]3CCCN(C(=O)C4CC4)C3)n2)n1` [7c], at JNK3 [1] (setting [4]), the IC50 is 4.6 µM.

Usually IC50 stands for the concentration at which inhibition is half-maximal.
